Source: patent publication US12685742B2, “Application of stachyose in preparation of drug for treating castration-resistant prostate cancer” (priority 2021, dated 2026)

Assays:
LNCaP cells = experiment: Production of DTP/DTEP cells from LNCaP cells by EPI and Enza, cell counting; assay type: cell-based; details: 1×10^6 LNCaP cells seeded, one value given for EPI and Enza; for number of LNCaP-DTP cells as percentage of the initial seed cells: 9 days drug treatment; for number of LNCaP-DTEP cells as percentage of the initial seed cells: 33 days drug treatment
From the text: In the period, for replacement, a fresh drug-containing medium was used every three days for culture, some cells (DTP cells) were collected for subsequent experiments after 9 days, and the remaining cells continued to be treated with drugs. In the period, for replacement, a fresh drug-containing medium was used every three days for culture, and DTEP cells were collected after 33 days for subsequent experiments. After the DTP and DTEP cells were produced, the cells were digested and counted to calculate the percentage of the cells in 1×10^6 cells. The collected NC, DTP and DTEP cells were used for subsequent Western Blot experiments: the three groups of cells were subjected to cell lysis, protein extraction and quantification, SDS-PAGE gel electrophoresis, membrane transfer, blocking, primary antibody incubation, secondary antibody incubation and development, then, the expression changes of AR-FL and its related target proteins and AR-Vs and its related target proteins were observed, and the expression changes of cell cycle-related proteins were observed. Flow cytometry: dead cells were stained by a PI-stained cycle kit, and cell cycle changes were determined by a flow cytometry.

L-DTP (EPI) cells = experiment: CCK8 cell survival and CI value (Calcusyn) in drug-tolerant L-DTP (EPI) cells; assay type: cell-based; details: L-DTP (EPI) cells produced after continuous EPI for 9 days
From the text: (§1) Finally, Calcusyn software was used for calculating a CI value in L-DTP cells.

L-DTP (Enza) cells = experiment: CCK8 cell survival and CI value (Calcusyn) in drug-tolerant L-DTP (Enza) cells; assay type: cell-based; details: L-DTP (Enza) cells produced after continuous Enza for 9 days
From the text: as §1

[1] = test system: C-MYC-over-expressed prostate cancer mouse model; experiment: C-MYC (Hi-Myc)-over-expressed spontaneous prostate cancer mouse model, prostate weight and HE staining; assay type: in vivo, mice
Procedure: A C-MYC (Hi-Myc)-over-expressed spontaneous prostate cancer mouse model was constructed, and at 4 months, the mice developed mPIN/Cancer transition. At the moment, the mice were randomly divided into an NC control group (intragastrical administration with solvents) and an Enza administration group. Then, intragastrical administration was performed every three days, and Enza administration was performed at 10 mg/Kg for a total of 30 days. Then, the necks of some mice were severed, and the prostate cancers of the mice were taken, photographed and weighed. […] Then, mice (mice aged 6 months) were randomly divided into: an NC control group (intragastrical administration with solvents all the time), an Enza single-drug group 1, an Enza single-drug group 2, a Stac single-drug group 1, a Stac single-drug group 2 and an Enza and Stac combination group, the corresponding administration treatment was performed, and all mice were intragastrically administered once every three days. The dosage of Enza in the Enza single-drug group 1 was kept at 10 mg/Kg each time, the dosage of Enza in the Enza single-drug group 2 was kept at 90 mg/Kg each time, the dosage of Stac in the Stac single-drug group 1 was kept at 80 mg/Kg each time, the dosage of Stac in the Stac single-drug group 2 was kept at 90 mg/Kg each time, the dosages of Enza and Stac in the Enza and Stac combination group were kept at 10 mg/Kg and 80 mg/Kg each time, and the administration was performed for a total of 30 days. Then, the necks of the mice were severed, and the prostate cancers of the mice were taken, photographed, weighed and subjected to experiments including immunohistochemistry.

PRDX5 = PRDX5 immunohistochemistry of prostate tissue slices, C-MYC-over-expressed prostate cancer mouse model; assay type: in vivo, mice; details: 30 d after drug tolerance relapse, immunohistochemical positive cells
From the text: A C-MYC (Hi-Myc)-over-expressed spontaneous prostate cancer mouse model was constructed, and at 4 months, the mice developed mPIN/Cancer transition. […] Then, the necks of some mice were severed, and the prostate cancers of the mice were taken, photographed and weighed. […] Then, the necks of the mice were severed, and the prostate cancers of the mice were taken, photographed, weighed and subjected to experiments including immunohistochemistry.

AR = AR immunohistochemistry of prostate tissue slices, C-MYC-over-expressed prostate cancer mouse model; assay type: in vivo, mice; details: 30 d after drug tolerance relapse, immunohistochemical positive cells
From the text: Then, the necks of some mice were severed, and the prostate cancers of the mice were taken, photographed and weighed. […] Then, the necks of the mice were severed, and the prostate cancers of the mice were taken, photographed, weighed and subjected to experiments including immunohistochemistry.

SMILES | number of LNCaP-DTP cells as percentage of the initial seed cells (LNCaP cells) [%] | number of LNCaP-DTEP cells as percentage of the initial seed cells (LNCaP cells) [%] | inhibition rate (L-DTP (EPI) cells) | inhibition rate (L-DTP (Enza) cells) | prostate weight compared with NC control group ([1]; Enza 10 mg/Kg intragastric every three days, 30 days, from 4 months of age) | Average of prostate weights of mice ([1]; Enza 10 mg/Kg, 30 d of administration after drug tolerance relapse, intragastric every three days) [mg] | Average of prostate weights of mice ([1]; Enza 90 mg/Kg, 30 d of administration after drug tolerance relapse, intragastric every three days) [mg] | Average of prostate weights of mice ([1]; continued Enza administration, after 90 days, drug tolerance relapse (NC control 98.2 mg)) [mg] | Average of prostate weights of mice ([1]; continuous Enza 10 mg/Kg intragastric every three days, 30 days (NC control 88.7 mg)) [mg] | PRDX5 expression/% (PRDX5; Enza 10 mg/Kg) [%] | PRDX5 expression/% (PRDX5; Enza 90 mg/Kg) [%] | AR expression/% (AR; Stac 80 mg/Kg) [%] | AR expression/% (AR; Stac 90 mg/Kg) [%] | Average of prostate weights of mice ([1]; Stac 80 mg/Kg, 30 d of administration after drug tolerance relapse, intragastric every three days) [mg] | Average of prostate weights of mice ([1]; Stac 90 mg/Kg, 30 d of administration after drug tolerance relapse, intragastric every three days) [mg] | treatment effect of single use after drug tolerance (prostate weight) ([1]; single use of Stac compared with single use of Enza, after drug tolerance relapse) | PRDX5 expression/% (PRDX5; Stac 80 mg/Kg) [%] | PRDX5 expression/% (PRDX5; Stac 90 mg/Kg) [%]
CC(C)(c1ccc(OCC(O)CO)cc1)c1ccc(OCC(O)CCl)cc1 (stereo not drawn) [EPI, EPI-001] | 103.11 | 110.92 | no obvious inhibiting effect | – | – | – | – | – | – | – | – | – | – | – | – | – | – | –
CNC(=O)c1ccc(N2C(=S)N(c3ccc(C#N)c(C(F)(F)F)c3)C(=O)C2(C)C)cc1F [Enza, Enzalutamide] | 103.11 | 110.92 | – | no obvious inhibiting effect | reduced by half | 54.42 | 53.83 | 77.1 | 43.9 | 78.4 | 80.0 | – | – | – | – | – | – | –
OC[C@H]1O[C@H](OC[C@H]2O[C@H](OC[C@H]3O[C@H](O[C@]4(CO)O[C@H](CO)[C@@H](O)[C@@H]4O)[C@H](O)[C@@H](O)[C@@H]3O)[C@H](O)[C@@H](O)[C@H]2O)[C@H](O)[C@@H](O)[C@H]1O [Stac, Stachyose] | – | – | 67.48% | 62.47% | – | – | – | – | – | – | – | 61.5 | 57.4 | 50.86 | 47.50 | better than that of the single use of Enza | 68.2 | 60.9
